Laboratory results: US11193941B2, “Method for evaluating condition of skin dryness” (KAO CORPORATION, priority 2014, dated 2021)

Test system: AGR2 mRNA
Experiment: Promoting action of humectant on AGR2 gene expression level in normal human epidermal cells (Real-Time PCR)
Assay type: cell-based
Details: NHEK, 72 hour culture; for AGR2 expression compared to that in the control: result in words; for AGR2 expression level (relative value): normalized with RPLP0, control (99.5% EtOH solvent) = 1, n=2
Protocol: The normal human epidermal cells (NHEK) were cultured under conditions of 37° C. and 5% CO2 using EpiLife (Registered Trademark) (purchased from Kurabo). The cells were seeded in a 12 well plate at 1×10^5 cells and cultured for 48 hours, and the medium was then exchanged with a serum-free medium. Further, vitamin D3, which is a known agent for ameliorating dry skin, (99.5% ethanol solution, final concentration 1 nM or 10 nM) (Nutrients, 4(9):1213-8, 2012), eucalyptus extract (50% ethanol solution, final concentration 0.001%) (J Cosmet Dermatol, 12(1):3-11, 2013), macrocarpal, which is a major physiologically active substance of eucalyptus extract (50% ethanol solution, final concentration 10 nM) (Int J Cosmet Sci, 34(1):17-22, 2012), or 99.5% ethanol or 50% ethanol as a control was added to the medium. After 72 hour culture, total RNA was extracted from cells using RNeasy (Registered Trademark) Mini Kit (QIAGEN). The concentration of total RNA was measured and a reverse transcription reaction was carried out using a constant amount of total RNA. High capacity RNA-to-cDNA kit (Applied Biosystems) was used for the reverse transcription reaction. The expression of AGR2 mRNA was quantitatively determined from the obtained cDNA by Real-Time PCR. Taqman (Registered Trademark) Probe (AGR2: Hs00180702_m1, Applied Biosystems) was used for quantitative determination, and PRISM 7500 (Applied Biosystems) was used for detection and quantitative determination. PCR was carried out in a 20 μL reaction system and the amplification conditions were a denaturation reaction at 95° C. for 15 seconds, annealing at 60° C. for a minute and an elongation reaction. The mRNA expression level was normalized with the expression level of RPLP0 (Hs99999902_m1, Applied Biosystems) and shown as a relative value in the case where the mean expression level of AGR2 in a control (only 99.5% EtOH solvent) was considered as 1.

Compound: macrocarpal
- AGR2 expression compared to that in the control: increased
- AGR2 expression level (relative value) (final concentration 10 nM): 1.17

Compound: C=C1CC[C@H](O)C/C1=C/C=C1\CCC[C@]2(C)[C@@H]([C@H](C)CCCC(C)C)CC[C@@H]12 [Vitamin D3, vitamin D3]
- AGR2 expression compared to that in the control: increased
- AGR2 expression level (relative value) (final concentration 1 nM): 1.05
- AGR2 expression level (relative value) (final concentration 10 nM): 1.17
